# Laboratory results reported in patent US11807625B2, “Capsid inhibitors for the prevention of HIV” (Gilead Sciences, Inc., priority 2019, dated 2023).
# Read-outs that look alike come from different tables or passages of the source.
# Experiment: PK of compound of Formula (Ia) after single subcutaneous dose of solution formulations in Wistar Han rats
# Format: in vivo
# Settings: male, Wistar Han, rat, plasma, sc, 50 mg/kg; for concentration at 2688 h / concentration at 3024 h / concentration at 3360 h / concentration at 3696 h / concentration at 4032 h / concentration at 4704 h: Wistar Han rats, SC 50 mg/kg, 500 mg/mL solution X (5.00% ethanol, 1.91% poloxamer 188); for AUC(0-t): male Wistar Han rats, single SC 50 mg/kg, mean ± SD
# Protocol: Formulations containing the compound of Formula (Ia), or a pharmaceutically acceptable salt thereof, were prepared as solutions and optionally administered subcutaneously or intramuscularly to rats, rabbits, and/or dogs.
# (§1) A solution of about 400 mg/mL of the compound of Formula (Ia) having 19.14 w/w % water, 40.66 w/w % PEG 300, 35.20 w/w % of a sodium salt of a compound of Formula (Ia), and 5.00% ethanol was prepared. The solution was administered subcutaneously to male Wistar Han rats at a dose level of about 50 mg/kg and dose volume of 0.125 mL/kg and the pharmacokinetic (PK) profile was determined.
# as §1, with “500” for “400”, “16.64” for “19.14”, “35.36” for “40.66”, “43.00” for “35.20”, “0.1” for “0.125”
# (§2) A solution of about 400 mg/mL of the compound of Formula (Ia) having 17.00 w/w % water, 36.40 w/w % PEG 300, 35.20 w/w % of a sodium salt of a compound of Formula (Ia), 5.00 w/w % ethanol, and 6.40 w/w % poloxamer 188 was prepared. The solution was administered subcutaneously to male beagle dogs at a dose level of about 12 mg/kg and male Wistar Han rats at a dose level of about 50 mg/kg. The pharmacokinetic profiles were determined, and the results for dogs are summarized in Table and Table, while the results for rats are summarized in Table and Table below.
# as §2, with “500” for “400”, “14.06” for “17.00”, “30.12” for “36.40”
# A solution of about 300 mg/mL of the compound of Formula (Ia) having 23.33 w/w % water, 48.99 w/w % PEG 300, 26.47 w/w % of a sodium salt of a compound of Formula (Ia), and 1.21 w/w % poloxamer 188 was prepared. The solution was administered subcutaneously to male beagle dogs at a dose level of about 6 mg/kg and male Wistar Han rats at a dose level of about 50 mg/kg. The pharmacokinetic profiles were determined, and the results for dogs are summarized in Table and Table, while the results for rats are summarized in Table and Table below.
# as §2, with “18.80” for “17.00”, “40.25” for “36.40”, “34.38” for “35.20”, “1.57” for “6.40”
# as §2, with “500” for “400”, “16.29” for “17.00”, “34.88” for “36.40”, “41.92” for “35.20”, “1.91” for “6.40”
# A solution of about 400 mg/mL of the compound of Formula (Ia) having 20.90 w/w % water, 44.72 w/w % PEG 300, and 34.38 w/w % of a sodium salt of a compound of Formula (Ia) was prepared. […]
structure (smiles),measurement,setting,value
CC(C)(C#Cc1ccc(-c2ccc(Cl)c3c(NS(C)(=O)=O)nn(CC(F)(F)F)c23)c([C@H](Cc2cc(F)cc(F)c2)NC(=O)Cn2nc(C(F)(F)F)c3c2C(F)(F)[C@@H]2C[C@H]32)n1)S(C)(=O)=O [compound of Formula (Ia)],concentration at 2688 h,Mean n = 3,168 nM
same,concentration at 2688 h,animals #1-#3,141 nM
same,concentration at 3024 h,Mean n = 3,161 nM
same,concentration at 3024 h,animals #1-#3,127 nM
same,concentration at 3360 h,Mean n = 3,157 nM
same,concentration at 3360 h,animals #1-#3,122 nM
same,concentration at 3696 h,Mean n = 3,134 nM
same,concentration at 3696 h,animals #1-#3,121 nM
same,concentration at 4032 h,Mean n = 3,135 nM
same,concentration at 4032 h,animals #1-#3,97.5 nM
same,concentration at 4704 h,Mean n = 3,88.8 nM
same,concentration at 4704 h,animals #1-#3,79.4 nM
same,AUC(0-t),"400 mg/mL solution AA (6.25% poloxamer 188), n = 4, read-out: AUC0-24 h",3.44 ± 0.69 µM·h
same,AUC(0-t),"400 mg/mL solution AA (6.25% poloxamer 188), n = 4, read-out: AUC0-168 h",32.4 ± 7.6 µM·h
same,AUC(0-t),"400 mg/mL solution AA (6.25% poloxamer 188), n = 4, read-out: AUC0-336 h",55.2 ± 16.3 µM·h
same,AUC(0-t),"400 mg/mL solution AA (6.25% poloxamer 188), n = 4, read-out: AUC0-672 h",98 ± 30.4 µM·h
same,AUC(0-t),"400 mg/mL solution AA (6.25% poloxamer 188), n = 4, read-out: AUC0-1008 h",136 ± 36 µM·h
same,AUC(0-t),"400 mg/mL solution AA (6.25% poloxamer 188), n = 4, read-out: AUC0-1344 h",167 ± 41 µM·h
same,AUC(0-t),"400 mg/mL solution AA (6.25% poloxamer 188), n = 4, read-out: AUC0-2352 h",190 ± 45 µM·h
same,AUC(0-t),"400 mg/mL solution AA (6.25% poloxamer 188), n = 4, read-out: AUC0-3024 h",240 ± 59 µM·h
same,AUC(0-t),"400 mg/mL solution AA (6.25% poloxamer 188), n = 4, read-out: AUC0-3696 h",289 ± 76 µM·h
same,AUC(0-t),"400 mg/mL solution W (5.00% ethanol, 1.57% poloxamer 188), n = 3, read-out: AUC0-24 h",2 ± 0.58 µM·h
same,AUC(0-t),"400 mg/mL solution W (5.00% ethanol, 1.57% poloxamer 188), n = 3, read-out: AUC0-168 h",21.6 ± 4.5 µM·h
same,AUC(0-t),"400 mg/mL solution W (5.00% ethanol, 1.57% poloxamer 188), n = 3, read-out: AUC0-336 h",45.9 ± 11.9 µM·h
same,AUC(0-t),"400 mg/mL solution W (5.00% ethanol, 1.57% poloxamer 188), n = 3, read-out: AUC0-672 h",124 ± 32 µM·h
same,AUC(0-t),"400 mg/mL solution W (5.00% ethanol, 1.57% poloxamer 188), n = 3, read-out: AUC0-1008 h",215 ± 45 µM·h
same,AUC(0-t),"400 mg/mL solution W (5.00% ethanol, 1.57% poloxamer 188), n = 3, read-out: AUC0-1344 h",306 ± 65 µM·h
same,AUC(0-t),"400 mg/mL solution W (5.00% ethanol, 1.57% poloxamer 188), n = 3, read-out: AUC0-1680 h",401 ± 86 µM·h
same,AUC(0-t),"400 mg/mL solution W (5.00% ethanol, 1.57% poloxamer 188), n = 3, read-out: AUC0-2352 h",540 ± 114 µM·h
same,AUC(0-t),"400 mg/mL solution W (5.00% ethanol, 1.57% poloxamer 188), n = 3, read-out: AUC0-3024 h",647 ± 126 µM·h
same,AUC(0-t),"400 mg/mL solution W (5.00% ethanol, 1.57% poloxamer 188), n = 3, read-out: AUC0-3696 h",730 ± 131 µM·h
same,AUC(0-t),"400 mg/mL solution W (5.00% ethanol, 1.57% poloxamer 188), n = 3, read-out: AUC0-4704 h",765 ± 131 µM·h
same,AUC(0-t),"400 mg/mL solution Y (water, PEG 300), n = 4, read-out: AUC0-24 h",1.66 ± 0.32 µM·h
same,AUC(0-t),"400 mg/mL solution Y (water, PEG 300), n = 4, read-out: AUC0-168 h",15.7 ± 4.7 µM·h
